What is called IC50 is the concentration at which inhibition is half-maximal. Read a high IC50 as weaker potency in that assay. As usually defined, the inhibition is the relative decrease from the control value, in per cent. A lower inhibition goes with little suppression.

Three compounds from ChEMBL document CHEMBL3596148, “Meridianin derivatives as potent Dyrk1A inhibitors and neuroprotective agents” (Bioorg Med Chem Lett, 2015) can be followed below.

For data set [1], the system named is SH-SY5Y. As to the kind of experiment: Neuroprotective activity against glutamate-induced neurotoxicity in human SH-SY5Y cells assessed as cell viability at 50 uM incubated for 30 mins prior to glutamate challenge measured after 24 hrs by MTT assay (reference value: 73.8 +/- 4.5%). Format: functional. The following applies: read-out: Activity.
For data set [2], the system named is SH-SY5Y. Description: Neuroprotective activity against glutamate-induced neurotoxicity in human SH-SY5Y cells assessed as cell viability at 10 uM incubated for 30 mins prior to glutamate challenge measured after 24 hrs by MTT assay (reference value: 73.8 +/- 4.5%). The format is functional. As to conditions: read-out: Activity.
The subject of data set [3] is SH-SY5Y. Description: cells. As to conditions: Homo sapiens, 24 h.
Data set [4] can be described thus: Cytotoxicity against human SH-SY5Y cells assessed as cell viability at 30 uM after 24 hrs by MTT assay relative to control. The format is cell-based. The following applies: read-out: Activity.
The target of data set [5] is RAC-beta serine/threonine-protein kinase (Homo sapiens) (UniProt P31751). Description: Inhibition of PKBbeta (unknown origin) at 0.5 uM relative to control.
Data set [6] deals with RAC-alpha serine/threonine-protein kinase (Homo sapiens) (UniProt P31749). As to the kind of experiment: Inhibition of PKBalpha (unknown origin) at 0.5 uM relative to control.
Data set [7] deals with T1, Inhibitor of nuclear factor kappa-B kinase subunit beta (Homo sapiens) (UniProt O14920).
T1 sequence (whole entry): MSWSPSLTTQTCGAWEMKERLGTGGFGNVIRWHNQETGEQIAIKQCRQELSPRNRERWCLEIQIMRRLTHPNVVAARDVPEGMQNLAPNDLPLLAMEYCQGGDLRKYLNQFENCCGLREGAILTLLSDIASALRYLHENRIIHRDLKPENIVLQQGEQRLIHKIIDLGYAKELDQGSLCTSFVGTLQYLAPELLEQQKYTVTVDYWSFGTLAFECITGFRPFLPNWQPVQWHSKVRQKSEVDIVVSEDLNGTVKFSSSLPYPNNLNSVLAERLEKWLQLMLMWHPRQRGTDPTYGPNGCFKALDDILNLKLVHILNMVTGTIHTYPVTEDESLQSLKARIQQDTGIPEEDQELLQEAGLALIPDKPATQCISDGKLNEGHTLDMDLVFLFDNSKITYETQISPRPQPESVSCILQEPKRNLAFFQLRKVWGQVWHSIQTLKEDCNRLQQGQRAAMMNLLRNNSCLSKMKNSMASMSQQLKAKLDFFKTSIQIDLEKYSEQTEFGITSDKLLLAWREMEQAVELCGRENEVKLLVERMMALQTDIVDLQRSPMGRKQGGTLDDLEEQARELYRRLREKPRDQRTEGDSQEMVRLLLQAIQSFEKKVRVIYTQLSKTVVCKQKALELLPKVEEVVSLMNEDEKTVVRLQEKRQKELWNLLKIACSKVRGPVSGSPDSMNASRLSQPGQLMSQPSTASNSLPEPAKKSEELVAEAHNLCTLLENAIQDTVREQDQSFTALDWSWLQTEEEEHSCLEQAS
Description: Inhibition of IKKbeta (unknown origin) at 0.5 uM relative to control.

The target in data set [8] is Tyrosine-protein kinase ABL1 (Homo sapiens) (UniProt P00519). Description: Inhibition of Abl (unknown origin) at 0.5 uM relative to control.
Data set [9] has as its target Glycogen synthase kinase-3 beta (Homo sapiens) (UniProt P49841). Description: Inhibition of GSK3beta (unknown origin) at 0.5 uM relative to control.
The target in data set [10] is Protein kinase C alpha type (Homo sapiens) (UniProt P17252). As to the kind of experiment: Inhibition of PKCalpha (unknown origin) at 0.5 uM relative to control.
Data set [11] deals with Casein kinase I isoform alpha (Homo sapiens) (UniProt P48729). As to the kind of experiment: Inhibition of CK1 (unknown origin) at 0.5 uM relative to control.
Data set [12] concerns the target Insulin-like growth factor 1 receptor (Homo sapiens) (UniProt P08069). As to the kind of experiment: Inhibition of IGF-1R (unknown origin) at 0.5 uM relative to control.
In data set [13] the target is Aurora kinase B (Homo sapiens) (UniProt Q96GD4). Description: Inhibition of Aurora B (unknown origin) at 0.5 uM relative to control.
Data set [14] addresses Insulin receptor (Homo sapiens) (UniProt P06213). As to the kind of experiment: Inhibition of IR (unknown origin) at 0.5 uM relative to control.
The target in data set [15] is AMP-activated protein kinase, AMPK (Homo sapiens) (UniProt P54646+O43741+P54619+Q9UGJ0+Q9Y478+Q13131+Q9UGI9). As to the kind of experiment: Inhibition of AMPK (unknown origin) at 0.5 uM relative to control. The format is protein-complex assay.
The target of data set [16] is T2, Aurora kinase A (Homo sapiens) (UniProt O14965).
T2 sequence (whole entry): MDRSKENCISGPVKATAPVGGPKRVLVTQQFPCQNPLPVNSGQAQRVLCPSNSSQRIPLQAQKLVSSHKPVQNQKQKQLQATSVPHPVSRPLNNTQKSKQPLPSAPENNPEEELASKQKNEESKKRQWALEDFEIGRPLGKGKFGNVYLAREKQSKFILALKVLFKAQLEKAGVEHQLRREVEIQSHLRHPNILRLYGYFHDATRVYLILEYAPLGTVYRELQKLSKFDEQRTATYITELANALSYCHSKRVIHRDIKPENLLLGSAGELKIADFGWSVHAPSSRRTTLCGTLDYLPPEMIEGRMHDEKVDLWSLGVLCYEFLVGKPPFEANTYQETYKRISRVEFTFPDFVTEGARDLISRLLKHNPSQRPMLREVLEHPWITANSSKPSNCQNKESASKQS
Description: Inhibition of Aurora A (unknown origin) at 0.5 uM relative to control.

Data set [17] concerns the target Cyclin-dependent kinase 2 (Homo sapiens) (UniProt P24941). Description: Inhibition of CDK2 (unknown origin) at 0.5 uM relative to control.
Data set [18] addresses Vascular endothelial growth factor receptor 1 (Homo sapiens) (UniProt P17948). As to the kind of experiment: Inhibition of VEGFR1 (unknown origin) at 0.5 uM relative to control.
Data set [19] has as its target Cyclin-dependent kinase 9 (Homo sapiens) (UniProt P50750). Description: Inhibition of CDK9 (unknown origin) at 0.5 uM relative to control.

Vascular endothelial growth factor receptor 1 (Homo sapiens), sequence (P17948 whole entry): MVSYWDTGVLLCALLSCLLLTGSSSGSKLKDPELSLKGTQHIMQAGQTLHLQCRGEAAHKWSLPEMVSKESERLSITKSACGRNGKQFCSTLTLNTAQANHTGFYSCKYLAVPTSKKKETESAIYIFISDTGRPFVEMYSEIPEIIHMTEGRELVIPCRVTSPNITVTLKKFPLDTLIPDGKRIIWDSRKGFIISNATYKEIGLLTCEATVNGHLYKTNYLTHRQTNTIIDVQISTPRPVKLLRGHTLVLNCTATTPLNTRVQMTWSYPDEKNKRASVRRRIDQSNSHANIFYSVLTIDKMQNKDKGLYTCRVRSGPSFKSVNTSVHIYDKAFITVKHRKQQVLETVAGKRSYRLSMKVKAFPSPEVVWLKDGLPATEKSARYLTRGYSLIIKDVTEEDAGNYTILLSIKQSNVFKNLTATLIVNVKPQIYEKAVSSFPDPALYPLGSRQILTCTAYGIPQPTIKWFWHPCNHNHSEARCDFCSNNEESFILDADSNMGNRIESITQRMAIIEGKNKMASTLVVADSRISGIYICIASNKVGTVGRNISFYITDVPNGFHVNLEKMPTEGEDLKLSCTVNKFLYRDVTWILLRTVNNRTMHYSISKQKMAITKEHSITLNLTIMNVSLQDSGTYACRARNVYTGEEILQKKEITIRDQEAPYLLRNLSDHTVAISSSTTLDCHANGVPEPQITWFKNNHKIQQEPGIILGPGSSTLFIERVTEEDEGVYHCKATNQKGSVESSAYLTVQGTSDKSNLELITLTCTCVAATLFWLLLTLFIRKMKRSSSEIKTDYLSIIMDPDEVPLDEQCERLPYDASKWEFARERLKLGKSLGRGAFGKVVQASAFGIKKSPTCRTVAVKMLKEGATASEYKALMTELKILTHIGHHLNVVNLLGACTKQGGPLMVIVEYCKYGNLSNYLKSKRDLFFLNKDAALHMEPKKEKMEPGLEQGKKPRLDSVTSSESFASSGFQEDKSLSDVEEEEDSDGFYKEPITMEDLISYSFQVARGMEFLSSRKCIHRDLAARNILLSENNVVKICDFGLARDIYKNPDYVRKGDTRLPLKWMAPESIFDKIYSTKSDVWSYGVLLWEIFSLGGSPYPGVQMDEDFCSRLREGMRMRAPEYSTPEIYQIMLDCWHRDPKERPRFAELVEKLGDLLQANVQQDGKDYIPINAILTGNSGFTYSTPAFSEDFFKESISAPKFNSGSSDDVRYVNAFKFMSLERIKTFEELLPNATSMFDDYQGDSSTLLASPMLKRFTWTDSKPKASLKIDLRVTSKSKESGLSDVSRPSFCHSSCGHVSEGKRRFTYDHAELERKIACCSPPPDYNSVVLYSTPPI
Insulin receptor (Homo sapiens), sequence (P06213 28-758 limits assumed): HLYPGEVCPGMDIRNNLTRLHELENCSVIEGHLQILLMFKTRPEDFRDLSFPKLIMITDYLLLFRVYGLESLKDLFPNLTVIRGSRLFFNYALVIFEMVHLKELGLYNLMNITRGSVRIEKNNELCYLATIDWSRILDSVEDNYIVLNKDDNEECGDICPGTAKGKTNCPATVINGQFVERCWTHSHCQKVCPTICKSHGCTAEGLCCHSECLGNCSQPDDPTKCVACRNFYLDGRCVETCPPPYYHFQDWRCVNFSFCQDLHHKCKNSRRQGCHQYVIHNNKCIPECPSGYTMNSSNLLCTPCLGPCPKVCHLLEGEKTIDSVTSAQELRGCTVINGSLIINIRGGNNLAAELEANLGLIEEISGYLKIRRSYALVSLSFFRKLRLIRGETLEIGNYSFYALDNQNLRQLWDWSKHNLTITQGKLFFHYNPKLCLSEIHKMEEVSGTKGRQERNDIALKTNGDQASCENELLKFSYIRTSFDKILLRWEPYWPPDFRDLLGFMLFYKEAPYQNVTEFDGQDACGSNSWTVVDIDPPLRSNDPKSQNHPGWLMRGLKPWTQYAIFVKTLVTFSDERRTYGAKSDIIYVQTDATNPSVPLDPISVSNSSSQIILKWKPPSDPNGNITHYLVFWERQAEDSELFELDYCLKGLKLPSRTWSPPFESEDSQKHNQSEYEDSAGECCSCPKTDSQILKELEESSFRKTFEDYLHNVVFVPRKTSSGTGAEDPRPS
Insulin receptor (Homo sapiens), sequence (P06213 763-1382 limits assumed): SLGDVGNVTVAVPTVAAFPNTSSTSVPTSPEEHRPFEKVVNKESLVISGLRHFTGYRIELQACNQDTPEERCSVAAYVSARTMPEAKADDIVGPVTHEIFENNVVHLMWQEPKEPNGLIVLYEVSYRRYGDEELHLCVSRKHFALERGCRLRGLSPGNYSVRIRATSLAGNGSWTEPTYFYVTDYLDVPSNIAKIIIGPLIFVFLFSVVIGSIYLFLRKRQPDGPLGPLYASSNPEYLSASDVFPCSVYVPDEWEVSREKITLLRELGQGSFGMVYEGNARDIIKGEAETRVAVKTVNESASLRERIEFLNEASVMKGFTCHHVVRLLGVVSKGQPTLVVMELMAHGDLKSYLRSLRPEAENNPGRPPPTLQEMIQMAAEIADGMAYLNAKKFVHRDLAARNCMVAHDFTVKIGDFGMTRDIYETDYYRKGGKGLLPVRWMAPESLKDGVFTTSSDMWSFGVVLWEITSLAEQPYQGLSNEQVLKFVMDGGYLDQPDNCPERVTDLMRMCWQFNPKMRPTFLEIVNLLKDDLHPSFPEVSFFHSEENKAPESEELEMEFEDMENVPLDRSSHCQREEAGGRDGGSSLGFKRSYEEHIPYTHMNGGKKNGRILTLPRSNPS
RAC-alpha serine/threonine-protein kinase (Homo sapiens), sequence (P31749 whole entry): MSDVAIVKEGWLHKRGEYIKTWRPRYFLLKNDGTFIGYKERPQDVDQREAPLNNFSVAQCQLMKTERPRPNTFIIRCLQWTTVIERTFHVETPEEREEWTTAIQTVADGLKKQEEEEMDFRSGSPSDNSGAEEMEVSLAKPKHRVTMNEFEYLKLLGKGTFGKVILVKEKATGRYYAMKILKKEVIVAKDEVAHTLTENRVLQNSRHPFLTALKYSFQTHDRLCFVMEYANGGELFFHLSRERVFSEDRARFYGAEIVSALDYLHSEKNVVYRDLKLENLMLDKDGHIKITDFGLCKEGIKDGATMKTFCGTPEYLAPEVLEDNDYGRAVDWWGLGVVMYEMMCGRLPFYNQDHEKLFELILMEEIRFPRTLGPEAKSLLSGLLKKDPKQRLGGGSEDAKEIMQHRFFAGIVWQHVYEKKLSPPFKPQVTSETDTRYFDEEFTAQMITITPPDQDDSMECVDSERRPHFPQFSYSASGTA
Casein kinase I isoform alpha (Homo sapiens), sequence (P48729 2-337 limits assumed): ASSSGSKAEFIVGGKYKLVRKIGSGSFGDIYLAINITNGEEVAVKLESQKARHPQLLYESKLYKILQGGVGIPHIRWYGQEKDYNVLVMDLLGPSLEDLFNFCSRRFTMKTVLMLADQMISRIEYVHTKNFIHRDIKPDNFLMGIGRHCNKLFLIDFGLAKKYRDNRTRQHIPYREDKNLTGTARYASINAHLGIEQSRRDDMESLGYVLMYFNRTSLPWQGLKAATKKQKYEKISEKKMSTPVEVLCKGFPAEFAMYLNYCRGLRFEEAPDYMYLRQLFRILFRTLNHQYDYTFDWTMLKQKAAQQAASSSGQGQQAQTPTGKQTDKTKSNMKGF
RAC-beta serine/threonine-protein kinase (Homo sapiens), sequence (P31751 whole entry): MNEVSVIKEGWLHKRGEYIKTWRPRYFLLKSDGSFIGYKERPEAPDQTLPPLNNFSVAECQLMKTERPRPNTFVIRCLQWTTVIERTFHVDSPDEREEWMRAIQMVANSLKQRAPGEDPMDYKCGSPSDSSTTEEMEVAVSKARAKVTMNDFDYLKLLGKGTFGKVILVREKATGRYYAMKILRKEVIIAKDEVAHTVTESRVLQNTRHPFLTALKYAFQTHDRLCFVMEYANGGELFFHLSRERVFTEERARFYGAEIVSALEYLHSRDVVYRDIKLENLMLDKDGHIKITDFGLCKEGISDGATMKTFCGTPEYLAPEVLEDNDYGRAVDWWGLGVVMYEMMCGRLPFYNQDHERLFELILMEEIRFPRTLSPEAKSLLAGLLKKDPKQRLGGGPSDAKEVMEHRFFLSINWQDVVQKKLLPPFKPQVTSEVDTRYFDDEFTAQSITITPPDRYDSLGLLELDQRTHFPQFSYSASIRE
Aurora kinase B (Homo sapiens), sequence (Q96GD4 whole entry): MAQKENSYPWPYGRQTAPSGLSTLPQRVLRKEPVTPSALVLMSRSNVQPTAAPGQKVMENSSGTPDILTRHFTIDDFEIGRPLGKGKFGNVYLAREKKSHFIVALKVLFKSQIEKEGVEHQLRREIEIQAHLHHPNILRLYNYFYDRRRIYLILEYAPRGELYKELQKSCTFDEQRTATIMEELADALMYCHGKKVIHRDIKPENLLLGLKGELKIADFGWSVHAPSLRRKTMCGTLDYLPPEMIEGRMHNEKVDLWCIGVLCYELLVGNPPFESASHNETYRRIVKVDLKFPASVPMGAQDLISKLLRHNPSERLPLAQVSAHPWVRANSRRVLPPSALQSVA

In the case of `Nc1nccc(-c2cn(C(=O)c3ccccc3)c3ccc(Br)cc23)n1`, in the data set on SH-SY5Y [1], the viability at 50 µM was determined as 94.1%. For the same compound, the viability at 10 µM in the data set on SH-SY5Y [2] was 93.2%. This compound also displayed an IC50 in the data set on SH-SY5Y [3] of more than 100 µM. In addition, the viability at 24 h, 30 µM in [4] came out at 65.1%.
For `Nc1nccc(-c2cn(S(=O)(=O)c3ccc(C(F)(F)F)cc3[N+](=O)[O-])c3ccc(Br)cc23)n1`, in the data set with SH-SY5Y [3], the IC50 was found to be 14 µM. The viability at 24 h, 30 µM in data set [4] was 15.2%.
As to `Nc1nccc(-c2c[nH]c3ccccc23)n1`, the inhibition in data set [5] is 0%; in data set [6] it was 22.3%; in [7], 16.6%; in [8], 7.1%; in data set [9], 0%; in data set [10], 8.5%. Further, the inhibition was 0% in data set [11]; 0% in data set [12]; 4.1% in data set [13]; 9.6% in data set [14]; 0% in data set [15]; 5.1% in [16]. Moreover, the inhibition came to 0% in data set [17], 8% in data set [18] and 3.8% in data set [19]. The viability at 24 h, 30 µM in data set [4] worked out at 91.4%.
